From BindingDB's records for doi:10.1128/AAC.00448-06 (National Center For Genetic Engineering and Biotechnology …, 2006)

Experiments:
[1] = target: Bifunctional dihydrofolate reductase-thymidylate synthase (Plasmodium vivax, UniProt O02604); experiment: Inhibitor Screening Using Bacterial System (IC50) and Measurement of Inhibition Constant (Ki); conditions: pH 7; 25 °C
Experimental: (§1) Nineteen Pyr analogs were studied for their inhibition activity against cells expressing either WT or SP21 mutant PvDHFR-TS. The assays were conducted with 96-well microplates by monitoring the growth at an optical density of 595 nm (A595). The average A595 of control culture omitting Pyr analogs was scored as 100% growth, and the average readings for the cultures at each drug concentration were divided by this value to obtain relative growth values. The concentrations that inhibited 50% bacterial growth (IC50s) were determined from dose-response curves. Inhibition constants (Ki) of antifolates were calculated using a nonlinear least square fit of the data to the Michaelis-Menten equation, assuming the inhibitor binds competitively to the enzyme active site.

[2] = target: T1, Bifunctional dihydrofolate reductase-thymidylate synthase [1-238,S58R,S117N] (Plasmodium vivax, UniProt O02604, S117N/S58R); experiment: as above
T1 construct: 1-238
T1 sequence (O02604 1-238, looked up, stated change not applied): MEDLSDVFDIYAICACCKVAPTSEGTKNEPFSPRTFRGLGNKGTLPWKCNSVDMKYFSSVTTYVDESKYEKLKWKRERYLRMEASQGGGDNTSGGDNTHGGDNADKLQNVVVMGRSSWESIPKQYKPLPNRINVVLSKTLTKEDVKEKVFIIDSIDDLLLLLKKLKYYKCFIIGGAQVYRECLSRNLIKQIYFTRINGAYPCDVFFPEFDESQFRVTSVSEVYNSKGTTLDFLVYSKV
Experimental: as §1

Chain of Bifunctional dihydrofolate reductase-thymidylate synthase (O02604 whole entry): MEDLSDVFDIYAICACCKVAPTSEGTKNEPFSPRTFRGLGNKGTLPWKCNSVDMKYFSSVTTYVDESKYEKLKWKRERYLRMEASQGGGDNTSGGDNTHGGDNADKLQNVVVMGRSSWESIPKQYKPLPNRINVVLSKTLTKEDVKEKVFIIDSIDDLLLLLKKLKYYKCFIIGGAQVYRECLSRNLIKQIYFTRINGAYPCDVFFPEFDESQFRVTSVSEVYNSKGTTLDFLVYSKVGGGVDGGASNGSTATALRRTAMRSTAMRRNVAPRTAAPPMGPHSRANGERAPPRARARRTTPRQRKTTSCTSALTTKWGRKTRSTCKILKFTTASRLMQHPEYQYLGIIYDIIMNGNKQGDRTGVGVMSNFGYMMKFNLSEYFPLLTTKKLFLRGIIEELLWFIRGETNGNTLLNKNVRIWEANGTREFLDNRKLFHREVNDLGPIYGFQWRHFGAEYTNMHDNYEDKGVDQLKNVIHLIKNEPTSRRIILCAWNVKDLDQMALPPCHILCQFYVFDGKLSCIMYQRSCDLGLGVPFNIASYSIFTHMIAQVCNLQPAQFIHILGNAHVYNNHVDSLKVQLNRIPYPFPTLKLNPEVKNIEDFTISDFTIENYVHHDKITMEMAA

Compound | IC50 [1] [nM] | Ki [1] [nM] | IC50 [2] [nM] | Ki [2] [nM]
CCc1nc(N)nc(N)c1-c1ccc(Cl)cc1 | 180 | 0.21 | 20000 | 3.04
Cc1nc(N)nc(N)c1-c1ccc(Cl)cc1 | 1950 | 0.78 | > 50000 | 63.4
COC(=O)CCCc1nc(N)nc(N)c1-c1ccc(Cl)cc1 | 200 | 0.69 | > 50000 | 7.43
CCc1nc(N)nc(N)c1-c1ccc(OC)cc1 | 350 | 1.01 | > 50000 | 37.8
CCc1nc(N)nc(N)c1-c1ccc(Cl)c(Cl)c1 | 70 | 0.52 | 10500 | 1.05
Nc1nc(N)c(-c2cccc(Cl)c2)c(CCCc2ccccc2)n1 | 2380 | 0.77 | 13900 | 1.32
CCc1nc(N)nc(N)c1-c1ccccc1 | 1820 | 0.03 | 1520 | 0.08
Cc1nc(N)nc(N)c1-c1ccccc1 | 11300 | 4.18 | 12800 | 22.5
Nc1nc(N)c(-c2ccccc2)c(CCCc2ccccc2)n1 | 800 | 0.53 | 2760 | 0.81
Nc1nc(N)c(-c2cccc(Cl)c2)c(CCOCCCOc2ccccc2)n1 [5-(3-chlorophenyl)-6-[2-(3-phenoxypropoxy)ethyl]pyrimidine-2,4-diamine] | 2270 | 0.63 | 14200 | 1.53
CCc1nc(N)nc(N)c1-c1cccc(Cl)c1 [5-(3-chlorophenyl)-6-ethylpyrimidine-2,4-diamine] | 360 | 0.31 | 300 | 0.54
Cc1nc(N)nc(N)c1-c1cccc(Cl)c1 [5-(3-chlorophenyl)-6-methylpyrimidine-2,4-diamine] | 2120 | 0.69 | 1980 | 1.19
CCc1nc(N)nc(N)c1-c1ccc(Br)cc1 [5-(4-bromophenyl)-6-ethylpyrimidine-2,4-diamine] | 90 | 0.78 | 30000 | 6.59
CC(C)Cc1nc(N)nc(N)c1-c1ccc(Cl)cc1 [5-(4-chlorophenyl)-6-(2-methylpropyl)pyrimidine-2,4-diamine] | 220 | 1.4 | 18200 | 28.1
CCCCCCCCCc1nc(N)nc(N)c1-c1ccc(Cl)cc1 [5-(4-chlorophenyl)-6-nonylpyrimidine-2,4-diamine] | 2200 | 4.29 | > 50000 | 24.5
Nc1ncc(-c2ccc(Cl)cc2)c(N)n1 [5-(4-chlorophenyl)pyrimidine-2,4-diamine] | 1520 | 3.42 | > 50000 | 1080
CCc1nc(N)nc(N)c1-c1ccc(C(C)(C)C)cc1 [5-(4-tert-butylphenyl)-6-ethylpyrimidine-2,4-diamine] | 1760 | 1.14 | > 50000 | 47.5
CCc1nc(N)nc(N)c1-c1ccc(C)cc1 [6-ethyl-5-(4-methylphenyl)pyrimidine-2,4-diamine] | 140 | 0.39 | 12400 | 2.21
CCCCCCc1nc(N)nc(N)c1-c1ccccc1 [6-hexyl-5-phenylpyrimidine-2,4-diamine] | 230 |  | 3020 | 0.9
